Experimental data reported in patent US10653688B2, “6-(6-membered heteroaryl and aryl)isoquinolin-3-yl carboxamides and preparation and use thereof” (Samumed, LLC, priority 2017, dated 2020).
Like-named read-outs stand apart in the source and are kept apart here.

Columns and labels:
[1] = tested on: Wnt activity (SW480 colon carcinoma cells stably expressing the Sp5-Luc reporter gene); assay: Wnt activity screening assay (Sp5-Luc reporter gene assay); assay type: cell-based, human; settings: Homo sapiens; for EC50: 36 to 48 hours; for inhibition at 10 µM: read-out: percent inhibition at 10 μM (given for EC50 >10 μM), 10 μM
Method in brief: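 SW480 colon carcinoma cells stably carrying a lentiviral luciferase reporter driven by an Sp5 promoter with eight TCF/LEF sites, plated at 4,000 cells/well in DMEM with 1% FBS. Compound exposure for 36–48 h at 37 °C, then luminescence read. Signals normalized to DMSO; EC50 from four-parameter nonlinear fit.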

recombinant GSK3β kinase = recombinant GSK3β kinase (Homo sapiens (Human), UniProt P49841); assay: GSK3β kinase assay (Ser/Thr 09 peptide Z-lyte, FRET); assay type: biochemical;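 also: FRET read-out as coumarin over fluorescein emission ratio, compounds incubated one hour at room temperature, IC50 from dose-response curve fit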
recombinant GSK3β kinase, sequence (P49841 whole entry): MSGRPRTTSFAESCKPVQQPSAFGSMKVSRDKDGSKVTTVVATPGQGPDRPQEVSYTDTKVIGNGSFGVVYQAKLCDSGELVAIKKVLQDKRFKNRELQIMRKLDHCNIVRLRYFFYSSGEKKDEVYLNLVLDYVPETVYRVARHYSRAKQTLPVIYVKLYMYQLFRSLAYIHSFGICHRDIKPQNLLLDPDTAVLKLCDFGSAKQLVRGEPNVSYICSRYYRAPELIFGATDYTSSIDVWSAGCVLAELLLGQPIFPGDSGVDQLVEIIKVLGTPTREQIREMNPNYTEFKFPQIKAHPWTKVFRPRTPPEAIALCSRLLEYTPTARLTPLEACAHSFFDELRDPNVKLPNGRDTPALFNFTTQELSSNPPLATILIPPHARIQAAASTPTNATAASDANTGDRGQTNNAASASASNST

[2] = tested on: Tau phosphorylation at Ser396 (pSer396) in SH-SY5Y cells; assay: Tau phosphorylation at Ser396 (pSer396) cell assay, ELISA/western blot; assay type: cell-based, human; settings: Homo sapiens; SH-SY5Y cells, overnight (16-18 h); read-out: pSer396 Tau EC50
[3] = tested on: IL-6 in human peripheral blood mononuclear cells (huPBMCs); assay: IL-6 inhibition in LPS-stimulated human peripheral blood mononuclear cells (HTRF); assay type: cell-based; settings: Homo sapiens, PBMC; for EC50: LPS 50 ng/mL, 22 hours, IL-6 HTRF; for inhibition at 10 µM: read-out: percent inhibition at 10 μM (given for EC50 >10 μM), LPS, IL-6, 10 μM
Method in brief: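 Fresh normal human PBMCs at 1×10e6 cells/mL in RPMI with 1% FBS received compound, then 50 ng/mL E. coli 0111:B4 LPS 2 h later, and were incubated a further 22 h at 37° C. IL-6 read by HTRF (665/620 nm ratio), normalized to DMSO; EC50 from 4-parameter fit.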

[4] = biological target: recombinant DYRK1A kinase (Homo sapiens (Human), UniProt Q13627); assay: DYRK1A kinase assay (Ser/Thr 18 peptide Z-lyte, FRET)
[5] = GSK3β kinase, head says EC50, method says IC50, ATP 46 μM
[6] = DYRK1A kinase, head says EC50, method says IC50, ATP 30 μM

EC50 [1] [µM]	EC50 (recombinant GSK3β kinase) [µM]	EC50 [2] [µM]	EC50 [3] [µM]	EC50 [4] [µM]	EC50 (recombinant GSK3β kinase; [5]) [µM]	EC50 [4, 6] [µM]	Compound	inhibition at 10 µM [1] [%]	inhibition at 10 µM [3] [%]
> 10	1.8	9.4	9.15	0.01	–	–	CN1CCC(C(=O)Nc2cc3cc(-c4cncc(F)c4)ccc3cn2)CC1 [Compound 19, N-(6-(5-Fluoropyridin-3-yl)isoquinolin-3-yl)-1-methylpiperidine-4-carboxamide]	35.9	–
> 10	–	> 10	> 10	–	3.21	0.042	CN1CCN(CC(=O)Nc2cc3cc(-c4ccc(F)nc4)ccc3cn2)CC1 [Compound 21, N-(6-(6-Fluoropyridin-3-yl)isoquinolin-3-yl)-2-(4-methylpiperazin-1-yl) acetamide]	5.5	6.3
> 10	0.602	8.5	> 10	0.017	–	–	O=C(CCN1CCOCC1)Nc1cc2cc(-c3cncc(F)c3)ccc2cn1 [Compound 23, N-(6-(5-Fluoropyridin-3-yl)isoquinolin-3-yl)-3-morpholinopropanamide]	38.7	8.6
0.81	–	1.45	3.65	–	0.957	0.004	COc1cncc(-c2ccc3cnc(NC(=O)C4CCN(C)CC4)cc3c2)c1 [Compound 33, N-(6-(5-Methoxypyridin-3-yl)isoquinolin-3-yl)-1-methylpiperidine-4-carboxamide]	–	–
0.312	–	> 10	8.95	–	0.725	0.025	CN1CCC(C(=O)Nc2cc3cc(-c4cncc(N5CCCC5)c4)ccc3cn2)CC1 [Compound 50, 1-Methyl-N-(6-(5-(pyrrolidin-1-yl)pyridin-3-yl)isoquinolin-3-yl)piperidine-4-carboxamide]	–	–
1.27	–	1.9	3	–	0.175	0.007	O=C(Nc1cc2cc(-c3cncc(CN4CCCC4)c3)ccc2cn1)C1CC1 [Compound 51, N-(6-(5-(Pyrrolidin-1-ylmethyl)pyridin-3-yl)isoquinolin-3-yl) cyclopropanecarboxamide]	–	–
0.691	0.175	0.705	3.25	0.002	–	–	O=C(Nc1cc2cc(-c3cncc(CN4CCC(O)CC4)c3)ccc2cn1)C1CC1 [Compound 53, N-(6-(5-((4-Hydroxypiperidin-1-yl)methyl)pyridin-3-yl)isoquinolin-3-yl) cyclopropanecarboxamide]	–	–
1.23	–	4.9	9.5	–	0.609	0.005	CN1CCN(Cc2cncc(-c3ccc4cnc(NC(=O)C5CC5)cc4c3)c2)CC1 [Compound 56, N-(6-(5-((4-Methylpiperazin-1-yl)methyl)pyridin-3-yl)isoquinolin-3-yl) cyclopropanecarboxamide]	–	–
1.14	–	2	3.8	–	0.18	0.004	O=C(Nc1cc2cc(-c3cncc(CN4CCOCC4)c3)ccc2cn1)C1CC1 [Compound 57, N-(6-(5-(Morpholinomethyl)pyridin-3-yl)isoquinolin-3-yl) cyclopropanecarboxamide]	–	–
> 10	0.404	1.9	9.09	0.01	–	–	[2H]c1nc([2H])c(-c2ccc3cnc(NC(=O)CN4CCCC4)cc3c2)c([2H])c1[2H] [Compound 60, N-(6-(pyridin-3-yl-d4)isoquinolin-3-yl)-2-(pyrrolidin-1-yl)acetamide]	41.9	–
> 10	1.03	9.8	> 10	0.011	–	–	[2H]c1nc([2H])c(-c2ccc3cnc(NC(=O)CN4CCN(C)CC4)cc3c2)c([2H])c1[2H] [Compound 61, 2-(4-Methylpiperazin-1-yl)-N-(6-(pyridin-3-yl-d4)isoquinolin-3-yl)acetamide]	19.6	26.4
> 10	0.455	4.8	> 10	0.009	–	–	[2H]c1nc([2H])c(-c2ccc3cnc(NC(=O)CN4CCOCC4)cc3c2)c([2H])c1[2H] [Compound 62, 2-Morpholino-N-(6-(pyridin-3-yl-d4)isoquinolin-3-yl)acetamide]	18.4	8
> 10	0.068	1.1	> 10	0.029	–	–	O=C(CN1CCOCC1)Nc1cc2cc(-c3ccnnc3)ccc2cn1 [Compound 67, 2-morpholino-N-(6-(pyridazin-4-yl)isoquinolin-3-yl)acetamide]	26.5	6.3
> 10	0.283	2.9	> 10	0.02	–	–	O=C(Nc1cc2cc(-c3cnccn3)ccc2cn1)[C@H]1C[C@H](N2CCOCC2)C1 [Compound 69, trans-3-Morpholino-N-(6-(pyrazin-2-yl)isoquinolin-3-yl)cyclobutane-1-carboxamide]	9	4.4
> 10	1.02	3.3	> 10	0.011	–	–	O=C(Nc1cc2cc(-c3cnccn3)ccc2cn1)[C@H]1CC[C@H](N2CCOCC2)CC1 [Compound 71, trans-4-Morpholino-N-(6-(pyrazin-2-yl)isoquinolin-3-yl)cyclohexane-1-carboxamide]	32.1	11
> 10	1.22	7.7	> 10	0.007	–	–	O=C(Nc1cc2cc(-c3cnccn3)ccc2cn1)[C@H]1CC[C@H](CN2CC(F)C2)CC1 [Compound 72, trans-4-((3-Fluoroazetidin-1-yl)methyl)-N-(6-(pyrazin-2-yl)isoquinolin-3-yl)cyclohexane-1-carboxamide]	35.7	10
> 10	0.828	> 10	0.32	0.004	–	–	CN1CCN(C[C@H]2CC[C@H](C(=O)Nc3cc4cc(-c5cnccn5)ccc4cn3)CC2)CC1 [Compound 73, trans-4-((4-Methylpiperazin-1-yl)methyl)-N-(6-(pyrazin-2-yl)isoquinolin-3-yl)cyclohexane-1-carboxamide]	33.3	–
> 10	1.39	> 10	> 10	0.01	–	–	CN1CCC(C(=O)Nc2cc3cc(-c4cnccn4)ccc3cn2)CC1 [Compound 75, 1-Methyl-N-(6-(pyrazin-2-yl)isoquinolin-3-yl)piperidine-4-carboxamide]	33.7	27.5
> 10	–	> 10	> 10	–	1.07	0.011	O=C(Nc1cc2cc(-c3cnccn3)ccc2cn1)C1CCN(CCF)CC1 [Compound 77, 1-(2-Fluoroethyl)-N-(6-(pyrazin-2-yl)isoquinolin-3-yl)piperidine-4-carboxamide]	36.4	9.6
> 10	–	> 10	> 10	–	0.804	0.013	O=C(Nc1cc2cc(-c3cnccn3)ccc2cn1)C1CCN(C2COC2)CC1 [Compound 78, 1-(Oxetan-3-yl)-N-(6-(pyrazin-2-yl)isoquinolin-3-yl)piperidine-4-carboxamide]	28.1	8.9
0.068	–	0.129	0.4	–	0.026	0.001	CC(C)Nc1cncc(-c2ccc3cnc(NC(=O)C4CCN(C)CC4)cc3c2)n1 [Compound 88, N-(6-(6-(Isopropylamino)pyrazin-2-yl)isoquinolin-3-yl)-1-methylpiperidine-4-carboxamide]	–	–
> 10	–	7.8	> 10	–	0.623	0.009	Cc1cncc(-c2ccc3cnc(NC(=O)CN4CCOCC4)cc3c2)c1 [Compound 146, N-(6-(5-Methylpyridin-3-yl)isoquinolin-3-yl)-2-morpholinoacetamide]	38.5	0
